For one experiment, the system named is E. coli 8739 (NCIM 2065). The experiment is classed as cell-based, Escherichia coli. The conditions noted are these: for inhibition at 100 microM: 8739 (NCIM 2065, 18 h, 100 microM); for MIC (*50% inhibition): starred value: 50% inhibition only. On the procedure:
(§1) Antimicrobial activity of the synthesized peptides was determined by broth microdilution assay and evaluated based on minimum inhibitory concentration (MIC). […] Gram negative microorganisms (Escherichia coli ATCC 8739, Escherichia coli ATCC 25922) were grown in Mueller-Hinton (MH) broth at 37 °C for 18h on a shaker to obtain an OD600nm of 0.8. Bacterial cultures were diluted in MH broth to obtain a cell density of 10^5–10^6 c.f.u/ml. Different concentrations of peptides, ranging from 1–100 μM were serially diluted in MH broth and inoculated with bacterial cultures in 1:1 ratio in sterile 96-well microtiter plates. The plates were incubated at 37 °C for 18h and antimicrobial activity was evaluated as MIC of the peptides by determining the absorbance at 600nm. The microorganisms were obtained from National Collection of Industrial Microorganisms (NCIM), Pune.

For experiment [1], the system named is E. coli 25922 (NCIM 2931). The experiment is classed as cell-based, Escherichia coli. The conditions noted are these: for MIC (*50% inhibition): starred value: 50% inhibition only. On the procedure: as §1
[2] abbreviates: Escherichia coli ATCC 25922, MH broth, 37 °C 18h, absorbance at 600nm, average range, triplicates of three independent experiments.
Where [3] appears, read: Escherichia coli ATCC 8739, MH broth, 37 °C 18h, absorbance at 600nm, average range, triplicates of three independent experiments.
Where [4] appears, read: Escherichia coli ATCC 8739, complete growth inhibition, MH broth, 10^5–10^6 c.f.u/ml, peptides 1–100 μM, 37 °C 18h, absorbance at 600nm, average range, triplicates of three independent experiments.
[5] abbreviates: Escherichia coli ATCC 25922, complete growth inhibition, MH broth, 10^5–10^6 c.f.u/ml, peptides 1–100 μM, 37 °C 18h, absorbance at 600nm, average range, triplicates of three independent experiments.

Where two headings read alike, the source gives them in different places. Marks after values point to notes of the source that are not given here. Residues, ends and D or L forms follow the SMILES beside them.

In the case of `CSCC[C@H](NC(=O)[C@H](CCCNC(=N)N)NC(=O)[C@H](CCC(N)=O)NC(=O)[C@H](Cc1c[nH]c2ccccc12)NC(=O)[C@H](CO)NC(=O)[C@H](CCC(N)=O)NC(=O)[C@H](CCCCN)NC(=O)[C@H](CC(C)C)NC(=O)[C@H](CCC(=O)O)NC(=O)[C@H](CCC(=O)O)NC(=O)[C@H](CCCNC(=N)N)NC(=O)[C@H](CCCNC(=N)N)NC(=O)[C@H](CCCNC(=N)N)NC(=O)[C@H](CCCNC(=N)N)NC(C)=O)C(=O)N[C@@H](CCCNC(=N)N)C(=O)N[C@@H](CCCCN)C(=O)N[C@@H](CC(C)C)C(=O)N[C@@H](C)C(=O)N[C@@H](CC(C)C)C(=O)N[C@@H](CCCCN)C(=O)N[C@@H](CCCNC(=N)N)C(N)=O` [LactP2] (Ac-RRRREELKQSWQRMRKLALKR-NH2), the MIC – broadly, the smallest concentration in the dilution series that meets the test's criterion for growth inhibition – with E. coli 8739 (NCIM 2065) (8739 (NCIM 2065, 18 h)) fell in the range of 50 to 100 µM. Moreover, the inhibition (in general, the share of the control response that was lost under treatment) at 100 microM in the experiment on E. coli 8739 (NCIM 2065) turned out to be 100%. The “MIC (*50% inhibition)” value in experiment [1] (setting [2]) is 50–100* microM.
`CSCC[C@H](NC(=O)[C@H](CCCNC(=N)N)NC(=O)[C@H](CCC(N)=O)NC(=O)[C@H](Cc1c[nH]c2ccccc12)NC(=O)[C@H](CO)NC(=O)[C@H](CCC(N)=O)NC(=O)[C@H](CCCCN)NC(C)=O)C(=O)N[C@@H](CCCNC(=N)N)C(=O)N[C@@H](CCCCN)C(=O)N[C@@H](CC(C)C)C(=O)N[C@@H](C)C(=O)N[C@@H](CC(C)C)C(=O)N[C@@H](CCCCN)C(=O)N[C@@H](CCCNC(=N)N)C(N)=O` [LactP1] (Ac-KQSWQRMRKLALKR-NH2): the “inhibition at 100 microM” value in the experiment on E. coli 8739 (NCIM 2065) turned out to be 50%; in experiment [1] (25922 (NCIM 2931, 18 h, 100 microM)), 50%. Moreover, the “MIC (*50% inhibition)” value (in the experiment with E. coli 8739 (NCIM 2065) (setting [3]); in experiment [1] (setting [2])) was 50–100* microM in each case.
On to `CC[C@H](C)[C@H](NC(=O)CNC(=O)[C@H](CC(=O)O)NC(=O)[C@H](CCCNC(=N)N)NC(=O)[C@@H](NC(=O)[C@H](CC(N)=O)NC(=O)[C@H](CCCNC(=N)N)NC(=O)CNC(=O)[C@@H](NC(=O)[C@H](CCCCN)NC(=O)[C@H](CCC(=O)O)NC(=O)[C@@H](NC(=O)[C@H](CCCCN)NC(=O)[C@H](CCCCN)NC(=O)[C@H](Cc1ccccc1)NC(=O)[C@@H](NC(=O)[C@H](CCCCN)NC(C)=O)[C@@H](C)CC)[C@@H](C)CC)C(C)C)C(C)C)C(=O)N[C@H](C(=O)N[C@@H](CCCCN)C(=O)N[C@@H](C)C(=O)NCC(=O)N1CCC[C@H]1C(=O)N[C@@H](C)C(=O)N[C@H](C(=O)N[C@@H](C)C(=O)N[C@H](C(=O)N[C@H](C(=O)N[C@@H](CCC(=O)O)C(=O)N[C@@H](CCC(N)=O)C(=O)N[C@@H](C)C(N)=O)C(C)C)C(C)C)C(C)C)[C@@H](C)CC` [CecH] (Ac-KIFKKIEKVGRNVRDGIIKAGPAVAVVEQA-NH2), for which the MIC in the experiment on E. coli 8739 (NCIM 2065) (8739 (NCIM 2065, 18 h)) lay in the range of 3.125 to 6.25 µM; in experiment [1] (25922 (NCIM 2931, 18 h)), 6.25 to 12.5 µM. In addition, the “antimicrobial activity (in words)” value (in the experiment with E. coli 8739 (NCIM 2065) (Escherichia coli ATCC 8739); in experiment [1] (Escherichia coli ATCC 25922)) was “activity similar to that of gentamycin” in each case.
For the molecule Gentamycin [reference compound], the MIC (in the experiment on E. coli 8739 (NCIM 2065) (setting [4]); in experiment [1] (setting [5])) was 1.56 to 3.125 µM throughout.
Take “WQRMRKL [LactP, N-acetylated, C-amidated]”: the “antimicrobial activity (in words)” value (in the experiment with E. coli 8739 (NCIM 2065) (Escherichia coli ATCC 8739); in experiment [1] (Escherichia coli ATCC 25922)) was “lacks activity” each time. For the same molecule, the MIC result (in the experiment on E. coli 8739 (NCIM 2065) (setting [4]); in experiment [1] (setting [5])) was “NA (Did not show activity upto 100 microM)” in each case.
On to “PLSCRRKIGICVLIRCSGNMRQIGTCLGALVKCCR [DefH, 35-residue defensin family peptide retrieved using HMMs, Class II; N-acetylated, C-amidated]”, for which the “MIC (*50% inhibition)” value against E. coli 8739 (NCIM 2065) (setting [3]) is 50–100* microM. For the same molecule, in experiment [1] (setting [5]), the MIC result is “NA (Did not show activity upto 100 microM)”.

The values above are taken from paper PMC4836297, “Leveraging family-specific signatures for AMP discovery and high-throughput annotation” (Scientific Reports, 2016).
